Experimental data as given in paper PMC2778353, “Toxicity of Xanthene Food Dyes by Inhibition of Human Drug-Metabolizing Enzymes in a Noncompetitive Manner” (Journal of Environmental and Public Health, 2009).
Read-outs that look alike come from different tables or passages of the source.

Legend:
P-glycoprotein = P-glycoprotein (Homo sapiens, UniProt P08183); assay: in vitro
Method: (§1) These enzymes were stored at −80°C. Superoxide dismutase (SOD) and catalase are products of Sigma.

UGT1A6 [1] = molecular target: T1, UGT1A6 (Homo sapiens, UniProt P19224); assay: Inhibition of UGT1A6 activity (glucuronidation of p-nitrophenol) in pooled human liver microsomes; conditions: for Difference of UGT1A6 activity between dark and light: 0.3 mM p-NP
T1 sequence (P19224 27-532): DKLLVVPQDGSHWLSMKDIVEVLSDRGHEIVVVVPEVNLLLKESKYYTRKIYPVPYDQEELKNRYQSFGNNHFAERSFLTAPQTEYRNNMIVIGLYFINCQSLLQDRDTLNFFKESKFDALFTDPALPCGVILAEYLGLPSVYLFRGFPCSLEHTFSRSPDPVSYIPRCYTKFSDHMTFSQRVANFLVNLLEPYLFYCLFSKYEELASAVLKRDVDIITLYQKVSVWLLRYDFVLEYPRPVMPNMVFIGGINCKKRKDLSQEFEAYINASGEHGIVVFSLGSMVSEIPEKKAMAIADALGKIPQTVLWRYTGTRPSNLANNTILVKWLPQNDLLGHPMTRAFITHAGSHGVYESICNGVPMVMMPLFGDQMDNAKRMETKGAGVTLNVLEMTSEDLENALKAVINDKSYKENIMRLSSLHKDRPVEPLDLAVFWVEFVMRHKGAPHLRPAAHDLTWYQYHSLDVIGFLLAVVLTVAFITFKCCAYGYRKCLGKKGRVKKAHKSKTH
Method: (§2) The enzyme source to measure CYP2A6, CYP3A4, and UGT1A6 activities was pooled human liver microsomes (HLMs), purchased from Gentest (Woburn, MA, USA). […] These enzymes were stored at −80°C.
(§3) The microassay method of UGT activity in this study was carried out according to previous reports [5, 51]. […] In order to investigate the role of reactive oxygen species on the inhibition of UGT1A6 by dyes, we studied the effect of SOD and catalase.
(§4) The inhibition of UGT1A6 activity with p-nitrophenol [5] and of UGT2B7 with androsterone by dyes was studied.

CYP3A4 = molecular target: T2, CYP3A4 (Homo sapiens, UniProt P08684); assay: Inhibition of CYP3A4 activity in pooled human liver microsomes (7-benzoyloxy-4-(trifluoromethyl)-coumarin substrate); format: biochemical; conditions: for IC50: pooled human liver microsomes
T2 construct: pooled human liver microsomes (HLMs), purchased from Gentest; tissue Gentest (Woburn, MA, USA); host or cells: pooled human liver microsomes
T2 sequence (P08684 whole entry): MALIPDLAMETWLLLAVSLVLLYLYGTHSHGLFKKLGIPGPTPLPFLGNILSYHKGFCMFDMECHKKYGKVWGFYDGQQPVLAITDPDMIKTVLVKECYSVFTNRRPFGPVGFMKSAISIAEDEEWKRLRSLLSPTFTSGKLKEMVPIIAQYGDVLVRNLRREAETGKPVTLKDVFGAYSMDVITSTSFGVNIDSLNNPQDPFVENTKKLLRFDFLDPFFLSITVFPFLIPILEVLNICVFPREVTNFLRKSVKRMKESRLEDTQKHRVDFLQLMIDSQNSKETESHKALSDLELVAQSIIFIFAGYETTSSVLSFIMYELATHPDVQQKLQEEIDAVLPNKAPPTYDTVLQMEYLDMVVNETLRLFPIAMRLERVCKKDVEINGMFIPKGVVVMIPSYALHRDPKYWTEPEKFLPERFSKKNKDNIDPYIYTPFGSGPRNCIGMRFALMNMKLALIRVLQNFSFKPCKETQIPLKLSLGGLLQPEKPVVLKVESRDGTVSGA
Method: as §1
CYP3A4 is a major enzyme among phase I drug-metabolizing enzymes and reacts with half of all drugs. To determine the influence of CYP3A4 activity by food dyes, the color of dyes influencing the fluorometric measurement over 30 μM dye concentration was measured. This background was subtracted from the measurement of color pigments.

UGT2B7 = molecular target: T3, UGT2B7 (Homo sapiens, UniProt P16662); assay: Inhibition of UGT2B7 activity (glucuronidation of androsterone), Sf9 cell membrane; format: biochemical
T3 construct: purchased Gentest; host or cells: Sf9 cells, baculovirus expression system
T3 sequence (P16662 24-529): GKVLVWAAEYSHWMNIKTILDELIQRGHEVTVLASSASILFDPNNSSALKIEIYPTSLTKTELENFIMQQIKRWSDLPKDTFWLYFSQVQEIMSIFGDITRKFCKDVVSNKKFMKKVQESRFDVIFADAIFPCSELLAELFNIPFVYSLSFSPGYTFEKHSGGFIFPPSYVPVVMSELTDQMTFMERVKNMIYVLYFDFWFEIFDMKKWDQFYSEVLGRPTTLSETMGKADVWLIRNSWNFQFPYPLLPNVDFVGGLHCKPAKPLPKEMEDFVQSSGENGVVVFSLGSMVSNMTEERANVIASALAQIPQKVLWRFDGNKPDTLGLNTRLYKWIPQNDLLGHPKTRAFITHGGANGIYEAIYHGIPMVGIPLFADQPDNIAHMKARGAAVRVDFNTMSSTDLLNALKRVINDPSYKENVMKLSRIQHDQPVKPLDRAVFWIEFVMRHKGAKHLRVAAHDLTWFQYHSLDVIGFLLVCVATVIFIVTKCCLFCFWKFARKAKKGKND
Method: as §1

UGT1A6 [2] = molecular target: T1, UGT1A6; assay: in vitro
Method: as §2, §3, §4

[3] = molecular target: P-glycoprotein (ATPase activity) (Homo sapiens, UniProt P08183); assay: in vitro; conditions: human
Sequence of P-glycoprotein (ATPase activity) (P08183 whole entry): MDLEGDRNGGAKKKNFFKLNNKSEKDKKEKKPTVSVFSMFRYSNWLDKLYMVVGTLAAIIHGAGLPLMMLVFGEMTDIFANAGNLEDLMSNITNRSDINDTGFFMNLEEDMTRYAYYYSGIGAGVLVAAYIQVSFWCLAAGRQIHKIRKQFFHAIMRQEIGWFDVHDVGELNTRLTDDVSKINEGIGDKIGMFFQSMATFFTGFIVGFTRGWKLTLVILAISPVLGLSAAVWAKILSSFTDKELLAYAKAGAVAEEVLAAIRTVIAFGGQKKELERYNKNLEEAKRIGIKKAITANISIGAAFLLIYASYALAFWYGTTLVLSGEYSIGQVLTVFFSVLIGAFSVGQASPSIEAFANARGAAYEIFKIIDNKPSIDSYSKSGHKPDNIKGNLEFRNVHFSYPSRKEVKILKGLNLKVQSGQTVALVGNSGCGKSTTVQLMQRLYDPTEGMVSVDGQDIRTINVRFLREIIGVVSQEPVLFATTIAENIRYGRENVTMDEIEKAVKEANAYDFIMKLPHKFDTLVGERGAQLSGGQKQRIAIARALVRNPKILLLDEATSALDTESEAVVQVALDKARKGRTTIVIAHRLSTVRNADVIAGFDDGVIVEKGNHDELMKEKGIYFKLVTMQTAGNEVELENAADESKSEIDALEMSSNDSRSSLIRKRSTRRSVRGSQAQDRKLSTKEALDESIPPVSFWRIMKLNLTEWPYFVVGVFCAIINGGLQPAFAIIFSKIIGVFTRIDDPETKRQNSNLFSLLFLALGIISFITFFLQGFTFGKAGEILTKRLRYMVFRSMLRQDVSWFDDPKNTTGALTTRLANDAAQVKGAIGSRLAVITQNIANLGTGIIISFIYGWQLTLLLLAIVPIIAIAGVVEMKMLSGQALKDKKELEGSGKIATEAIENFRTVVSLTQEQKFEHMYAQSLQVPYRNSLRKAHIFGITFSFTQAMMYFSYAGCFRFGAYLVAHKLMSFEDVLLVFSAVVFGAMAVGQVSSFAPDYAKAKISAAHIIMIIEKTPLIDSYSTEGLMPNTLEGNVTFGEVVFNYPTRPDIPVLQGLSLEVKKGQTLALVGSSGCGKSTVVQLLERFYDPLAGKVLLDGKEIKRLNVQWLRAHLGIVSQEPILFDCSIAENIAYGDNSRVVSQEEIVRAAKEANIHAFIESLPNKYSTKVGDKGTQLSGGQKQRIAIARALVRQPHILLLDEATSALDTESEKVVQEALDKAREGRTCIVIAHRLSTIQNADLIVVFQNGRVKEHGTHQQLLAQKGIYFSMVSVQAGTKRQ
Method: as §1

[4] = read-out: IC50 value P-glycoprotein, ATPase activity of P-gp membrane
[5] = human, pooled human liver microsomes, probe p-nitrophenol
[6] = human, probe 7-benzoyloxy-4-(trifluoromethyl)-coumarin
[7] = glucuronidation inhibition by RB

Sequence of P-glycoprotein (P08183 whole entry): as above

COc1cc(S(=O)(=O)[O-])c(C)cc1N=Nc1c(O)ccc2cc(S(=O)(=O)[O-])ccc12.[Na+].[Na+] [Allura red (AL), allura red] was tested, and the IC50 (P-glycoprotein; [4]) was greater than 1000 µM, the “Inhibition of UGT1A6 activity (in words)” value (UGT1A6 [1]) was “insignificant inhibition” and the IC50 (CYP3A4) was greater than 1000 µM.

In the case of O=S(=O)([O-])c1ccc2c(N=Nc3ccc(S(=O)(=O)[O-])c4ccccc34)c(O)c(S(=O)(=O)[O-])cc2c1.[Na+].[Na+].[Na+] [Amaranth (AM), amaranth], the IC50 (P-glycoprotein) is reported as greater than 1000 µM, the “Inhibition of UGT1A6 activity (in words)” value (UGT1A6 [1]) is reported as “insignificant inhibition” and the “Inhibition of CYP3A4 (in words)” value (CYP3A4) is reported as “noninhibition”. For the same molecule, the IC50 (CYP3A4) was greater than 1000 µM.

In the case of CCN(Cc1cccc(S(=O)(=O)[O-])c1)c1ccc(C(=C2C=CC(=[N+](CC)Cc3cccc(S(=O)(=O)[O-])c3)C=C2)c2ccccc2S(=O)(=O)[O-])cc1.[Na+].[Na+] [Brilliant blue FCF (BB), brilliant blue FCF], the IC50 (P-glycoprotein) is reported as greater than 1000 µM, the “Inhibition of UGT1A6 activity (in words)” value (UGT1A6 [1]) is reported as “insignificant inhibition” and the IC50 (CYP3A4) is reported as greater than 1000 µM.

O=C(O)c1cc(N=C=S)ccc1-c1c2cc(Br)c(=O)c(Br)c-2oc2c(Br)c(O)c(Br)cc12 [Dye E5ic, Eosin-5-isothiocyanate, reference compound] was tested, and the IC50 (UGT1A6 [1]; [5]) was 70 µM.

For O=C1OC2(c3ccccc31)c1cc(I)c(O)c(I)c1Oc1c2cc(I)c(O)c1I [Erythrosine B (ET), erythrosine], the IC50 (P-glycoprotein) was 15.6 µM, the “Inhibition of P-gp (in words)” value (P-glycoprotein) was “well inhibited” and the IC50 (UGT1A6 [1]) was 50 µM. For the same molecule, the “Inhibition of UGT1A6 activity (in words)” value (UGT1A6 [1]) was “greatest inhibition”, the “Substrate activity for UGT1A6” value (UGT1A6 [1]) was “no substrate activity” and the “Type of inhibition of UGT1A6 (Lineweaver-Burk plots)” value (from here on “Type of inhibition of UGT1A6”) (UGT1A6 [1]) was “non-competitive”. The IC50 (UGT1A6 [1]; [5]) was 70 µM, the “Inhibition of CYP3A4 at 30 μM” value (CYP3A4; 30 μM dye) was “completely inhibited” and the “Type of inhibition of UGT2B7” value (UGT2B7) was “non-competitive”. For the same molecule, the “Inhibition of UGT2B7 (in words)” value (UGT2B7; androsterone glucuronidation) was “inhibited”.

For O=C1/C(=C2\Nc3ccc(S(=O)(=O)[O-])cc3C2=O)Nc2ccc(S(=O)(=O)[O-])cc21.[Na+].[Na+] [Indigo carmine (ID), indigo carmine], the IC50 (P-glycoprotein) was greater than 1000 µM, the “Inhibition of UGT1A6 activity (in words)” value (UGT1A6 [1]) was “no inhibition” and the IC50 (CYP3A4) was greater than 1000 µM.

In the case of [N-]=[N+]=[N-].[Na+] [NaN3, reference compound], the “Prevention of RB inhibition of UGT1A6 by 1O2 quencher” value (“Prevention of RB inhibition of UGT1A6” for short) (UGT1A6 [1]) is reported as “significantly prevented” and the “Inhibition of glucuronidation of p-NP by UGT1A6 by quencher itself” value (from here on “Inhibition of glucuronidation of p-NP”) (UGT1A6 [1]; 1 to 20 mM) is reported as “no inhibition”.

O=S(=O)(O)c1cc(S(=O)(=O)O)c2c(N=Nc3ccc(S(=O)(=O)O)c4ccccc34)c(O)ccc2c1 [New coccine (NC), new coccine] showed an IC50 (P-glycoprotein; [4]) greater than 1000 µM, an IC50 (UGT1A6 [1]; read-out: IC50 value UGT1A6, pooled human liver microsomes, p-nitrophenol glucuronidation) greater than 1000 µM and an IC50 (CYP3A4) greater than 1000 µM.

In the case of O=C(O)c1c(Cl)c(Cl)c(Cl)c(Cl)c1-c1c2cc(Br)c(=O)c(Br)c-2oc2c(Br)c(O)c(Br)cc12 [Phloxine (PL), phloxine], the IC50 (UGT1A6 [2]) is reported as 40 µM, the “Inhibition of P-gp (in words)” value (P-glycoprotein) is reported as “well inhibited” and the IC50 [3] is reported as 24.5 µM. The “Type of inhibition of UGT1A6” value (UGT1A6 [1]) was “non-competitive”, the “Inhibition of CYP3A4 (in words)” value (CYP3A4) was “showed inhibition” and the IC50 (CYP3A4; [6]) was 5.6 µM. The “Type of inhibition of UGT2B7” value (UGT2B7) was “non-competitive”.

For O=C(O)c1c(Cl)c(Cl)c(Cl)c(Cl)c1-c1c2cc(I)c(=O)c(I)c-2oc2c(I)c(O)c(I)cc12 [Rose Bengal (RB), rose bengal], the “Inhibition of P-gp (in words)” value (P-glycoprotein) was “well inhibited”, the IC50 [3] was 11.7 µM and the “Type of inhibition of UGT1A6” value (UGT1A6 [1]) was “non-competitive”. For the same molecule, the “Difference of UGT1A6 activity between dark and light” value (UGT1A6 [1]; 0.1 mM RB) was “could not find a significant difference”, the “Difference of UGT1A6 activity between dark and light” value (UGT1A6 [1]; 0.01, 0.02, and 0.05 mM RB) was “significant difference” and the “UGT1A6 activity in D2O relative to H2O in presence of RB” value (UGT1A6 [1]; D2O solution versus water) was “approximately half”. The IC50 (UGT1A6 [1]; [5]) was 15 µM, the “Inhibition of CYP3A4 (in words)” value (CYP3A4) was “showed inhibition” and the IC50 (CYP3A4; [6]) was 21.2 µM. The “Type of inhibition of UGT2B7” value (UGT2B7) was “non-competitive”.

O=S(=O)([O-])c1ccc(N=Nc2c(O)ccc3cc(S(=O)(=O)[O-])ccc23)cc1.[Na+].[Na+] [Sunset yellow FCF (SY), sunset yellow FCF] was tested, and the IC50 (P-glycoprotein; [4]) was greater than 1000 µM, the “Inhibition of UGT1A6 activity (in words)” value (UGT1A6 [1]) was “no inhibition” and the IC50 (CYP3A4) was greater than 1000 µM.

For O=C([O-])C1=NN(c2ccc(S(=O)(=O)[O-])cc2)C(=O)C1N=Nc1ccc(S(=O)(=O)[O-])cc1.[Na+].[Na+].[Na+] (stereo not drawn) [Tartrazine (TT), tartrazine], the IC50 (P-glycoprotein) was greater than 1000 µM, the “Inhibition of UGT1A6 activity (in words)” value (UGT1A6 [1]) was “no inhibition” and the IC50 (CYP3A4) was greater than 1000 µM.

With O=C(O)c1ccccc1-c1c2ccc(=O)cc-2oc2cc(O)ccc12 [Uranine, reference compound] the “Inhibition of UGT1A6 activity (in words)” value (UGT1A6 [1]) was “did not inhibit” and the IC50 (UGT1A6 [1]; [5]) was greater than 1000 µM.

With c1ccc2c(c1)Cc1ccccc1O2 [Xanthene] the IC50 (UGT1A6 [1]) was greater than 1000 µM and the “Inhibition of UGT1A6 activity (in words)” value (UGT1A6 [1]) was “did not inhibit”.

For N[C@@H](Cc1c[nH]cn1)C(=O)O [histidine, reference compound], the “Inhibition of glucuronidation of p-NP” value (UGT1A6 [1]; 1 to 20 mM) was “no inhibition” and the “Prevention of RB inhibition of UGT1A6” value (UGT1A6 [1]; [7]) was “significantly prevented”.

With CC(=O)N(CC(O)CN(C(C)=O)c1c(I)c(C(=O)NCC(O)CO)c(I)c(C(=O)NCC(O)CO)c1I)c1c(I)c(C(=O)NCC(O)CO)c(I)c(C(=O)NCC(O)CO)c1I (stereo not drawn) [iodixanol, reference compound] the “Inhibition of UGT1A6 activity (in words)” value (UGT1A6 [1]) was “no inhibition”.

With CNC(=O)c1c(I)c(NC(C)=O)c(I)c(C(=O)O)c1I.CNC[C@H](O)[C@@H](O)[C@H](O)[C@H](O)CO [meglumine iotalamate, reference compound] the “Inhibition of UGT1A6 activity (in words)” value (UGT1A6 [1]) was “no inhibition”.

For CCN(CC)c1ccc2c(-c3ccccc3C(=O)O)c3ccc(=[N+](CC)CC)cc-3oc2c1 [rhodamine, reference compound], the IC50 (UGT1A6 [1]) was greater than 1000 µM and the “Inhibition of UGT1A6 activity (in words)” value (UGT1A6 [1]) was “did not inhibit”.

In the case of CC(=O)Nc1c(I)c(NC(C)=O)c(I)c(C(=O)[O-])c1I.[Na+] [sodium diatrizoate, reference compound], the “Inhibition of UGT1A6 activity (in words)” value (UGT1A6 [1]) is reported as “no inhibition”.

For CC1=C(/C=C/C(C)=C/C=C/C(C)=C/C=C/C=C(C)/C=C/C=C(C)/C=C/C2=C(C)CCCC2(C)C)C(C)(C)CCC1 [β-carotene, reference compound], the “Inhibition of glucuronidation of p-NP” value (UGT1A6 [1]; 0.2–0.5 mM) was “no inhibition” and the “Prevention of RB inhibition of UGT1A6” value (UGT1A6 [1]; [7]) was “did not”.

For catalase, the “Prevention of ET inhibition of UGT1A6” value (UGT1A6 [1]; added to the mixture of UGT1A6 inhibition by ET) was “no prevention”.
